Patent US9320733B2, “Assessment and modulation of cerebrospinal fluid for head pain” (priority 2010, dated 2016)

System: patient with headache (CSF pressures 13-14 cmW)
Test: Case report (Example 1): one patient with 10 years of headache and normal CSF pressure, treated by CSF removal via lumbar puncture and then Diamox
Format: in vivo, human
Method: Therefore more CSF was drained 10 ml total. […] For example triptans may be combined with Diamox or diuretics, triptans may be combined with NSAM or Lumbar puncture, shunts or intraocular drainage procedures may be use singularly or together.

Compound | response of the major headache component to medication (10 years of headache, before CSF removal) | postdural puncture headache (PDPH) while on treatment (3 days after LP with 10 ml CSF drained and start of Diamox, PDPH lost on brief discontinuation) | usual headache after being placed on Diamox (after removal of 10 ml CSF by LP, 3 days later) | symptom status on maintenance treatment (low dose Diamox, after CSF removal)
CC1(C)O[C@@H]2[C@@H](CO[C@@]3(COS(N)(=O)=O)OC(C)(C)O[C@@H]23)O1 [Topamax, topiramate] | refractory to treatment |  |  | 
CC(=O)Nc1nnc(S(N)(=O)=O)s1 [Diamox, acetazolamide] |  | developed postdurai puncture headache | total absence of their usual headache | symptom free
